Data: publication PMC6099682, “(-)-Shikimic Acid as a Chiral Building Block for the Synthesis of New Cytotoxic 6-Aza-Analogues of Angucyclinones” (Molecules : A Journal of Synthetic Chemistry and Natural …, 2018)

Tests used:
[1] = system: PC-3 (prostate cancer); test: Sulforhodamine B cytotoxicity assay, PC-3; assay type: cell-based; settings: for IC50: 72 h continuous exposure, SRB assay, mean ± SD; for Selectivity index (SI), ratio of IC50 in CoN in cancer cells, PC-3: CCD841-CoN IC50 / PC-3 IC50
Procedure: (§1) To analyse the scope of the shikimic-fragment incorporated in the angucycline scaffold on the cytotoxic activity of these compounds, we included five previously obtained compounds (Figure 2, [32]). Therefore, the cytotoxicity of the new nine synthesised compounds, and of the five aforementioned compounds, was evaluated in vitro against different cancer cell lines: PC-3 (prostate cancer), HT-29 (colon cancer), MCF-7 (breast cancer), and one non-tumoral cell line, human colon epithelial cells (CCD841 CoN). A conventional colorimetric assay was set up to estimate the IC50 values, which represent the concentration of a drug that is required for 50% inhibition in vitro after 72 h of continuous exposure to the test compounds. Several serial dilutions (from 1.25 to 100 µM) for each sample were evaluated in triplicate.
(§2) The experimental cell lines were obtained from the American Type Culture Collection. HT-29 (colon cancer cell line), PC-3 (prostate cancer), MCF-7 (breast cancer), and CCD841 CoN (colon epithelial) were grown in DMEM-F12 containing 10% FCS, 100 U/mL penicillin, 100 µg/mL streptomycin, and 1 mM glutamine.
(§3) The in vitro cytotoxic activities of all the compounds were evaluated on cell lines previously mentioned by the sulforhodamine B assay, according to [42]. Briefly, cells were seeded at a plating density of 5 × 10^3 cells/well into 96 well plates. Cells were incubated at 37 °C for 24 h to allow cell attachment. The test compounds at indicated final concentrations were added to the culture medium and the cell cultures were continued for 72 h under the same conditions. Stock solutions of compounds were prepared in DMSO. Control cultures received 0.1% DMSO alone. At the end of the treatment, cells were fixed with trichloroacetic acid (50% w/v) at 4 °C and, subsequently, washed with water. Cells were stained with 0.1% sulforhodamine B in 1% acetic acid for 30 min. Posteriorly, the cells were washed acetic acid (1%) to remove unbound sulforhodamine B. Protein-bound stain was solubilized with 10 mM unbuffered Tris base). The optical density was determined using a […] plate reader (540 nm). The obtained values are transformed to percentages of viable cells versus control treatment and the IC50 values calculated for each compound in the cell lines were studied using the SigmaPlot 12.0 software (Systat Software, San Jose, CA, USA). Values shown are the mean ± SD of the three independent experiments in triplicate.

[2] = system: human colon epithelial cells (CCD841 CoN); test: Sulforhodamine B cytotoxicity assay, non-tumoral CCD841 CoN; assay type: cell-based; settings: CCD-841CoN, 72 h continuous exposure, SRB assay, mean ± SD
Procedure: as §1, §2, §3

[3] = system: MCF-7 (breast cancer); test: Sulforhodamine B cytotoxicity assay, MCF-7; assay type: cell-based; settings: for Selectivity index (SI), ratio of IC50 in CoN in cancer cells, MCF-7: CCD841-CoN IC50 / MCF-7 IC50; for IC50: Homo sapiens, MCF7, 72 h continuous exposure, SRB assay, mean ± SD, read-out: IC50 Values MCF-7
Procedure: as §1, §2, §3

[4] = system: HT-29 (colon cancer); test: Sulforhodamine B cytotoxicity assay, HT-29; assay type: cell-based; settings: for Selectivity index (SI), ratio of IC50 in CoN in cancer cells, HT-29: CCD841-CoN IC50 / HT-29 IC50; for IC50: 72 h continuous exposure, SRB assay, mean ± SD
Procedure: as §1, §2, §3

melting point [°C]	SMILES	IC50 ([1]; 72 h) [µM]	Selectivity index (SI), ratio of IC50 in CoN in cancer cells, PC-3 [1]	IC50 [2] [µM]	Selectivity index (SI), ratio of IC50 in CoN in cancer cells, MCF-7 [3]	IC50 [3] [µM]	Selectivity index (SI), ratio of IC50 in CoN in cancer cells, HT-29 [4]	IC50 ([4]; Homo sapiens, HT-29, 72 h) [µM]	IC50 [4] [µM]	IC50 [1] [µM]
–	CC1(C)O[C@@H]2[C@H](O1)c1c(cnc3c1C(=O)c1c(O)ccc(O)c1C3=O)C[C@H]2O[Si](C)(C)C(C)(C)C [Compound 9b]	13.1 ± 2	1.2	15.6 ± 2.1	0.6	28.3 ± 4	1.1	15 ± 4.2	–	–
117.5	CO[C@H]1C=Cc2cnc3c(c2[C@@H]1OC)C(=O)c1ccccc1C3=O [Compound 19c, (1S,2S)-1,2-Dimethoxy-1,2-dihydrobenzo[b]phenanthridine-7,12-dione]	4 ± 0.4	4.4	17.4 ± 2	1.4	12.8 ± 1.4	0.8	21 ± 3.6	–	–
–	COc1cccc2cnc3c(c12)C(=O)c1ccccc1C3=O [Compound 20, 1-Methoxybenzo[b]phenanthridine-7,12-dione]	7.8 ± 1	3.0	23.6 ± 3.4	1.7	14 ± 1.7	6.4	~3	3.7 ± 1.2	–
–	CN(C)N1C=C2C[C@@H](O[Si](C)(C)C(C)(C)C)[C@@H]3OC(C)(C)O[C@@H]3[C@H]2C2=C1C(=O)c1c(O)cccc1C2=O [Compound 7a]	< 1	3.3	2.3 ± 0.3	0.1	16 ± 1	11.5	< 0.4	0.2 ± 0.05	0.7 ± 0.1
177.3	CO[C@@H]1[C@@H]2C(=CNC3=C2C(=O)c2cccc(O)c2C3=O)C[C@@H](OC)[C@@H]1OC [Compound 16b, (1R,2S,3R,12bR)-8-Hydroxy-1,2,3-trimethoxy-1,2,3,4,6,12b-hexahydrobenzo[b]phenanthridine-7,12-dione]	6.6 ± 1.1	2.3	15.5 ± 3.1	1.3	11.5 ± 3.1	2.9	5.3 ± 0.8	–	–
–	CC1(C)O[C@@H]2[C@@H]3C(=CNC4=C3C(=O)c3ccccc3C4=O)C[C@@H](O[Si](C)(C)C(C)(C)C)[C@@H]2O1 [Compound 8]	5.7 ± 1.3	2.4	13.8 ± 1	3.3	4.2 ± 4.2	1.8	7.8 ± 0.9	–	–
161.5	CO[C@@H]1[C@@H]2C(=CNC3=C2C(=O)c2ccccc2C3=O)C[C@@H](OC)[C@@H]1OC [Compound 16a, (1R,2S,3R,12bR)-1,2,3-Trimethoxy-1,2,3,4,6,12b-hexahydrobenzo[b]phenanthridine-7,12-dione]	23.6 ± 3.7	4.9	116 ± 17.8	1.0	118 ± 10.8	2.7	42.9 ± 8.4	–	–
–	CC(=O)Oc1cccc2c1C(=O)C1=C(C2=O)[C@H]2C(=CN1N(C)C)C[C@@H](O[Si](C)(C)C(C)(C)C)[C@@H]1OC(C)(C)O[C@H]21 [Compound 7b]	2.4 ± 0.9	0.3	0.8 ± 0.1	0.1	12.1 ± 4	0.4	2.1 ± 1.2	–	–
